Reference: patent US10611740B2, “Aryl dihydro-2H-benzo[b][1,4]oxazine sulfonamide and related compounds for use as agonists of RORγ and the treatment of disease” (Lycera Corporation, priority 2015, dated 2020)

Tests used:
RORγ-LBD = target: T1, RORγ-LBD (Homo sapiens, UniProt P51449); test: RORγ-Ligand Binding Domain (LBD) TR-FRET Assay; type: biochemical;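 as to TR-FRET Assay Max Response: 665/615 nm ratio relative to signal without ursolic acid or compound set at 100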
T1 construct: made in house; host or cells: SF9 cells (baculovirus)
T1 sequence (P51449 269-508 limits assumed): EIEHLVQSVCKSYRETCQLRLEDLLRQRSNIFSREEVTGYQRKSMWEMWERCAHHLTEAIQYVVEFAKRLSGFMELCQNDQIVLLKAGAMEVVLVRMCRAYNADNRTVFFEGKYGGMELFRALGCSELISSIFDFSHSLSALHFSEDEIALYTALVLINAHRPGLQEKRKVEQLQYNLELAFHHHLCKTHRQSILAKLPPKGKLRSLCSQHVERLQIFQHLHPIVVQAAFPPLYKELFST
In short: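 TR-FRET read-out using a biotin-tagged SRC1 coactivator LXXLL peptide (200 nM final), with the antagonist ursolic acid present at 2 μM final. Receptor is His-tagged LBD expressed in SF9 cells, ~3 nM final in pH 7.0 Tris/KCl/EDTA/DTT/BSA buffer; compounds in 1% DMSO final.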

Gal4-RORγ-LBD = target: T2, Gal4-RORγ-LBD (Homo sapiens, UniProt P51449); test: Gal4-RORγ Luciferase Reporter Assay in HEK-293T Cells; type: cell-based; settings: HEK-293 cells
T2 construct: expressed in transfected cells; host or cells: HEK-293 cells (pcDNA3.1neo plasmid)
T2 sequence (P51449 269-508 limits assumed): T1 sequence (P51449 269-508 limits assumed)
In short: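 Luminescence read-out (One-Glo, 10 min RT) after overnight compound exposure at 37 °C in HEK-293 cells carrying Gal4-RORγ-LBD plus a Gal4-luciferase reporter, in the presence of 2 μM ursolic acid. Max Response is the upper plateau from a 4-parameter logistic fit, normalized to untreated signal = 100.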

[1] = luciferase reporter, with 2 μM ursolic acid

Structure (SMILES) | EC50 (RORγ-LBD) [nM] | EC50 (Gal4-RORγ-LBD; 2 μM ursolic acid) [nM] | EC50 (Gal4-RORγ-LBD; [1]) [nM] | TR-FRET Assay Max Response (RORγ-LBD) | Gal4-RORγ Assay Max Response (Gal4-RORγ-LBD; 2 μM ursolic acid) | Gal4-RORγ Assay Max Response (Gal4-RORγ-LBD; [1])
Cn1nccc1-c1ccc2c(c1)N(S(=O)(=O)c1cccc(C(F)(F)F)c1)C[C@H](CCC(=O)O)O2 [Compound 2AR, (S)-3-(6-(1-methyl-1H-pyrazol-5-yl)-4-((3-(trifluoromethyl)-phenyl)sulfonyl)-3,4-dihydro-2H-benzo[b][1,4]oxazin-2-yl)propanoic acid] | 500 to 5000 | – | > 10000 | * (The symbol “*” indicates a value in the range of 25 to 90) | – | –
CC(C)(C(=O)NC[C@H]1CN(S(=O)(=O)c2cccc(C(F)(F)F)c2)c2cc(-c3cc(F)cc(F)c3Cl)ccc2O1)C(F)(F)F [Compound 30CL, (S)-N-((6-(2-chloro-3,5-difluoro-phenyl)-4-((3-(trifluoromethyl)-phenyl)sulfonyl)-3,4-dihydro-2H-benzo[b][1,4]oxazin-2-yl)methyl)-3,3,3-trifluoro-2,2-dimethylpropanamide] | 500 to 5000 | 500 to 5000 | – | ** (The symbol “**” indicates a value in the range of greater than 90 to 150) | * (The symbol “*” indicates a value in the range of 25 to 90) | –
O=C(O)CC[C@H]1CN(S(=O)(=O)c2cccc(C(F)(F)F)c2)c2cc(-c3ccc(F)c(Cl)c3)ccc2O1 [Compound 2J, (S)-3-(6-(3-chloro-4-fluorophenyl)-4-((3-(trifluoromethyl)phenyl)-sulfonyl)-3,4-dihydro-2H-benzo[b][1,4]oxazin-2-yl)propanoic acid] | < 500 | – | 500 to 5000 | ** (The symbol “**” indicates a value in the range of greater than 90 to 150) | – | * (The symbol “*” indicates a value in the range of 25 to 90)
O=C(CC[C@H]1CN(S(=O)(=O)c2cccc(C(F)(F)F)c2)c2cc(-c3cccc(C(F)(F)F)n3)ccc2O1)N1CCS(=O)(=O)CC1 [Compound 23G, (S)-1-(1,1-dioxidothio-morpholino)-3-(4-((3-(trifluoro-methyl)phenyl)sulfonyl)-6-(6-(trifluoromethyl)pyridin-2-yl)-3,4-dihydro-2H-benzo[b][1,4]-oxazin-2-yl)propan-1-one] | < 500 | – | < 500 | **** (The symbol “****” indicates a value greater than 200) | – | ** (The symbol “**” indicates a value in the range of greater than 90 to 150)
CC(=O)N[C@@H](C(=O)NC[C@H]1CN(S(=O)(=O)c2cccc(C(F)(F)F)c2)c2cc(-c3cc(F)ccc3F)ccc2O1)C(C)C [Compound 30AS] | < 500 | – | 500 to 5000 | *** (The symbol “***” indicates a value in the range of greater than 150 to 200) | – | * (The symbol “*” indicates a value in the range of 25 to 90)
CC(F)C(=O)NC[C@H]1CN(S(=O)(=O)c2cccc(C(F)(F)F)c2)c2cc(-c3cccc(F)c3Cl)ccc2O1 (stereo partly drawn) [Compound 30CK, N-(((S)-6-(2-chloro-3-fluoro-phenyl)-4-((3-(trifluoromethyl)-phenyl)sulfonyl)-3,4-dihydro-2H-benzo[b][1,4]oxazin-2-yl)methyl)-2-fluoropropanamide] | < 500 | 500 to 5000 | – | ** (The symbol “**” indicates a value in the range of greater than 90 to 150) | * (The symbol “*” indicates a value in the range of 25 to 90) | –
CC(C)(C[C@H]1CN(S(=O)(=O)c2cccc(C(F)(F)F)c2)c2cc(-c3cccc(F)c3Cl)ccc2O1)C(=O)O [Compound 32H, (S)-3-(6-(2-chloro-3-fluorophenyl)-4-((3-(trifluoromethyl)phenyl)sulfonyl)-3,4-dihydro-2H-benzo[b][1,4]oxazin-2-yl)-2,2-dimethylpropanoic acid] | < 500 | – | 500 to 5000 | **** (The symbol “****” indicates a value greater than 200) | – | ** (The symbol “**” indicates a value in the range of greater than 90 to 150)

Continued, in another order:

EC50 (RORγ-LBD) [nM] | EC50 (Gal4-RORγ-LBD; 2 μM ursolic acid) [nM] | EC50 (Gal4-RORγ-LBD; [1]) [nM] | Structure (SMILES) | TR-FRET Assay Max Response (RORγ-LBD) | Gal4-RORγ Assay Max Response (Gal4-RORγ-LBD; 2 μM ursolic acid) | Gal4-RORγ Assay Max Response (Gal4-RORγ-LBD; [1])
< 500 | < 500 | – | O=C(O)C1(C[C@H]2CN(S(=O)(=O)c3cccc(C(F)(F)F)c3)c3cc(-c4cc(F)cc(OC(F)F)c4)ccc3O2)CCOCC1 [Compound 58, (S)-4-((6-(3-(difluoromethoxy)-5-fluorophenyl)-4-((3-(trifluoromethyl)phenyl)sulfonyl)-3,4-dihydro-2H-benzo[b][1,4]oxazin-2-yl)methyl)tetrahydro-2H-pyran-4-carboxylic acid] | *** (The symbol “***” indicates a value in the range of greater than 150 to 200) | ** (The symbol “**” indicates a value in the range of greater than 90 to 150) | –
< 500 | – | < 500 | CC(C)C(=O)NC[C@H]1CN(S(=O)(=O)c2cccc(C(F)(F)F)c2)c2cc(-c3cc(F)ccc3F)ccc2O1 [Compound 30AX, (S)-N-((6-(2,5-difluorophenyl)-4-((3-(trifluoromethyl)phenyl)-sulfonyl)-3,4-dihydro-2H-benzo[b][1,4]oxazin-2-yl)methyl)isobutyramide] | *** (The symbol “***” indicates a value in the range of greater than 150 to 200) | – | ** (The symbol “**” indicates a value in the range of greater than 90 to 150)
< 500 | – | 500 to 5000 | O=C(O)CC[C@H]1CN(S(=O)(=O)c2cccc(C(F)(F)F)c2)c2cc(-c3cc(C(F)(F)F)ccn3)ccc2O1 [Compound 3, (S)-3-(4-((3-(trifluoromethyl)phenyl)sulfonyl)-6-(4-(trifluoromethyl)pyridin-2-yl)-3,4-dihydro-2H-benzo[b][1,4]oxazin-2-yl)propanoic acid] | *** (The symbol “***” indicates a value in the range of greater than 150 to 200) | – | *** (The symbol “***” indicates a value in the range of greater than 150 to 200)
< 500 | < 500 | – | CC(C)(CC[C@H]1CN(S(=O)(=O)c2cccc(OC(F)F)c2)c2cc(-c3cc(F)ccc3F)ccc2O1)C(=O)O [Compound 32T, (S)-4-(4-((3-(difluoro-methoxy)phenyl)sulfonyl)-6-(2,5-difluorophenyl)-3,4-dihydro-2H-benzo[b][1,4]oxazin-2-yl)-2,2-dimethylbutanoic acid] | *** (The symbol “***” indicates a value in the range of greater than 150 to 200) | ** (The symbol “**” indicates a value in the range of greater than 90 to 150) | –
< 500 | – | < 500 | CN(C)c1cccc(-c2ccc3c(c2)N(S(=O)(=O)c2cccc(C(F)(F)F)c2)C[C@H](CC(C)(C)C(=O)O)O3)n1 [Compound 32D, (S)-3-(6-(6-(dimethylamino)-pyridin-2-yl)-4-((3-(trifluoromethyl)phenyl)sulfonyl)-3,4-dihydro-2H-benzo[b][1,4]oxazin-2-yl)-2,2-dimethylpropanoic acid] | **** (The symbol “****” indicates a value greater than 200) | – | ** (The symbol “**” indicates a value in the range of greater than 90 to 150)
< 500 | – | < 500 | CC(=O)OCC(=O)NC[C@H]1CN(S(=O)(=O)c2cccc(C(F)(F)F)c2)c2cc(-c3cc(F)ccc3F)ccc2O1 [Compound 30AY, (S)-2-(((6-(2,5-difluorophenyl)-4-((3-(trifluoromethyl)phenyl)-sulfonyl)-3,4-dihydro-2H-benzo[b][1,4]oxazin-2-yl)methyl)amino)-2-oxoethyl acetate] | *** (The symbol “***” indicates a value in the range of greater than 150 to 200) | – | ** (The symbol “**” indicates a value in the range of greater than 90 to 150)
< 500 | – | < 500 | CC(C)(C#N)C(=O)NC[C@H]1CN(S(=O)(=O)c2cccc(C(F)(F)F)c2)c2cc(-c3cc(F)ccc3F)ccc2O1 [Compound 30AQ, (S)-2-cyano-N-((6-(2,5-difluoro-phenyl)-4-((3-(trifluoromethyl)-phenyl)sulfonyl)-3,4-dihydro-2H-benzo[b][1,4]oxazin-2-yl)methyl)-2-methylpropanamide] | *** (The symbol “***” indicates a value in the range of greater than 150 to 200) | – | * (The symbol “*” indicates a value in the range of 25 to 90)
< 500 | – | < 500 | COc1cc(S(=O)(=O)N2C[C@H](CNS(=O)(=O)N(C)C)Oc3ccc(-c4cc(F)ccc4F)cc32)ccc1F [Compound 45C, ([[(2S)-6-(2,5-difluorophenyl)-4-[[4-fluoro-3-methoxy-benzene]-sulfonyl]-3,4-dihydro-2H-1,4-benzoxazin-2-yl]methyl]sulfamoyl)-(dimethyl)amine] | *** (The symbol “***” indicates a value in the range of greater than 150 to 200) | – | * (The symbol “*” indicates a value in the range of 25 to 90)
